{
  "source": "patent US4017607A",
  "key": {"[1]": {"tested_on": "gram-negative and gram-positive bacteria", "experiment": "Antibacterial activity (in words)", "type": "cell-based"}, "[2]": {"tested_on": "Corynebacterium diphtheriae Type intermedius", "experiment": "Minimum inhibitory concentration, serial dilution method", "type": "cell-based", "conditions": "Corynebacterium diphtheriae Type intermedius; 24 hours, 37° C; read-out: Minimum Inhibitory Concentration"}, "[3]": {"tested_on": "Streptococcus hemolyticus D-90", "experiment": "Minimum inhibitory concentration, serial dilution method", "type": "cell-based", "conditions": "Streptococcus pyogenes, D90, 24 h, read-out: Minimum Inhibitory Concentration"}, "[4]": {"tested_on": "Streptococcus hemolyticus Cook", "experiment": "Minimum inhibitory concentration, serial dilution method", "type": "cell-based", "conditions": "Streptococcus pyogenes; Streptococcus hemolyticus Cook; 24 hours, 37° C; read-out: Minimum Inhibitory Concentration"}, "[5]": {"tested_on": "Bacillus subtilis PCI 219", "experiment": "Minimum inhibitory concentration, serial dilution method", "type": "cell-based", "conditions": "PCI219; Bacillus subtilis PCI 219; 24 hours, 37° C; read-out: Minimum Inhibitory Concentration"}, "[6]": {"tested_on": "Staphylococcus aureus Terajima", "experiment": "Minimum inhibitory concentration, serial dilution method", "type": "cell-based", "conditions": "Staphylococcus aureus, 24 h, read-out: Minimum Inhibitory Concentration"}, "[7]": {"tested_on": "Staphylococcus albus 1200A", "experiment": "Minimum inhibitory concentration, serial dilution method", "type": "cell-based", "conditions": "read-out: Minimum Inhibitory Concentration"}, "[8]": {"tested_on": "Bacillus anthracis No. 119", "experiment": "microbe, parasite or virus in culture", "type": "cell-based", "conditions": "NO.119, 24 h, read-out: Minimum Inhibitory Concentration"}, "[9]": {"tested_on": "Diplococcus pneumoniae Type III", "experiment": "Minimum inhibitory concentration, serial dilution method", "type": "cell-based", "conditions": "Streptococcus pneumoniae; Diplococcus pneumoniae Type III; 24 hours, 37° C; read-out: Minimum Inhibitory Concentration"}, "[10]": {"tested_on": "Streptococcus pyogenes D-58", "experiment": "Minimum inhibitory concentration, serial dilution method", "type": "cell-based", "conditions": "D58; Streptococcus pyogenes D-58; 24 hours, 37° C; read-out: Minimum Inhibitory Concentration"}, "[11]": {"tested_on": "Staphylococcus aureus 209P", "conditions": "7th day, 10 mice per group"}, "[12]": {"tested_on": "Bacillus subtilis ATCC 6633", "experiment": "Minimum inhibitory concentration, serial dilution method", "type": "cell-based", "conditions": "read-out: Minimum Inhibitory Concentration"}, "[13]": {"tested_on": "Staphylococcus aureus Smith", "experiment": "Minimum inhibitory concentration, serial dilution method", "type": "cell-based", "conditions": "Staphylococcus aureus Smith; 24 hours, 37° C; read-out: Minimum Inhibitory Concentration"}, "[14]": {"tested_on": "Corynebacterium diphtheriae Type gravis", "experiment": "Minimum inhibitory concentration, serial dilution method", "type": "cell-based", "conditions": "Corynebacterium diphtheriae Type gravis; 24 hours, 37° C; read-out: Minimum Inhibitory Concentration"}, "[15]": {"tested_on": "Diplococcus pneumoniae Type I", "experiment": "Minimum inhibitory concentration, serial dilution method", "type": "cell-based", "conditions": "Streptococcus pneumoniae; Diplococcus pneumoniae Type I; 24 hours, 37° C; read-out: Minimum Inhibitory Concentration"}, "[16]": {"tested_on": "Streptococcus faecalis ATCC 8043", "experiment": "Minimum inhibitory concentration, serial dilution method", "type": "cell-based", "conditions": "Enterococcus faecalis, read-out: Minimum Inhibitory Concentration"}, "[17]": {"tested_on": "Staphylococcus aureus 209P", "experiment": "Minimum inhibitory concentration, serial dilution method, Brain Heart Infusion broth", "type": "cell-based", "conditions": "Staphylococcus aureus, 209P, 24 h, read-out: Minimum Inhibitory Concentration"}, "Sarcina lutea": {"tested_on": "Sarcina lutea", "experiment": "Minimum inhibitory concentration, serial dilution method", "type": "cell-based", "conditions": "Micrococcus luteus; Sarcina lutea; 24 hours, 37° C; read-out: Minimum Inhibitory Concentration"}},
  "note": "Read-outs that look alike come from different tables or passages of the source.",
  "data": [
    {"compound": "CCC(=O)OC1CC(=O)OC(C)CC=CC=CC(OC(C)=O)C(C)CC(C=COC(C)=O)C(OC2OC(C)C(OC3CC(C)(OC(=O)CC)C(OC(C)=O)C(C)O3)C(N(C)C)C2OC(C)=O)C1OC", "note": "(stereo not shown)", "values": [
      {"measurement": "antibacterial activity", "setting": "[1]", "value": "substantially no antibacterial activity"}
    ]},
    {"compound": "CCC(=O)OC1CC(=O)OC(C)CC=CC=CC(OC(C)=O)C(C)CC(C=COC(C)=O)C(OC2OC(C)C(OC3CC(C)(OC(=O)CC)C(OC(C)=O)C(C)O3)C(N(C)C)C2O)C1OC", "note": "(stereo not shown)", "values": [
      {"measurement": "antibacterial activity", "setting": "[1]", "value": "no antibacterial activity"}
    ]},
    {"compound": "9,2' -di-acetyl-18,3\" -di-propionyl SF-837 substance", "values": [
      {"measurement": "antibacterial activity", "setting": "[1]", "value": "observed"}
    ]},
    {"compound": "CCC(=O)OC1CC(=O)OC(C)CC=CC=CC(OC(C)=O)C(C)CC(CC=O)C(OC2OC(C)C(OC3CC(C)(O)C(OC(=O)CC)C(C)O3)C(N(C)C)C2OC(C)=O)C1OC", "note": "(stereo not shown) [9,2'-di-acetyl SF-837 substance, reference compound]", "values": [
      {"measurement": "MIC", "setting": "[2]", "value": 0.19, "unit": "µg/mL"},
      {"measurement": "MIC", "setting": "[3]", "value": 1.56, "unit": "µg/mL"},
      {"measurement": "MIC", "setting": "[4]", "value": 0.19, "unit": "µg/mL"},
      {"measurement": "MIC", "setting": "[5]", "value": 0.78, "unit": "µg/mL"},
      {"measurement": "MIC", "setting": "[6]", "value": 1.56, "unit": "µg/mL"},
      {"measurement": "MIC", "setting": "[7]; Staphylococcus, 1200A, 24 h", "value": 1.56, "unit": "µg/mL"},
      {"measurement": "MIC", "setting": "[8]", "value": 1.56, "unit": "µg/mL"},
      {"measurement": "MIC", "setting": "[9]", "value": 0.09, "unit": "µg/mL"},
      {"measurement": "MIC", "setting": "[10]", "value": 0.19, "unit": "µg/mL"},
      {"measurement": "Rate of surviving mice in each group of mice", "setting": "[11]; 100 mg/kg oral", "value": "0/10"},
      {"measurement": "Rate of surviving mice in each group of mice", "setting": "[11]; 200 mg/kg oral", "value": "6/10"},
      {"measurement": "MIC", "setting": "[12]; ATCC6633, Bacillus subtilis ATCC 6633, 24 hours, 37° C", "value": 3.12, "unit": "µg/mL"},
      {"measurement": "MIC", "setting": "[13]", "value": 0.39, "unit": "µg/mL"},
      {"measurement": "MIC", "setting": "[14]", "value": 0.39, "unit": "µg/mL"},
      {"measurement": "MIC", "setting": "[15]", "value": 0.09, "unit": "µg/mL"},
      {"measurement": "MIC", "setting": "[16]; ATCC8043, Streptococcus faecalis ATCC 8043, 24 hours, 37° C", "value": 3.12, "unit": "µg/mL"},
      {"measurement": "MIC", "setting": "[17]", "value": 1.56, "unit": "µg/mL"},
      {"measurement": "MIC", "setting": "Sarcina lutea", "value": 0.19, "unit": "µg/mL"}
    ]},
    {"compound": "CCC(=O)OC=CC1CC(C)C(OC(C)=O)C=CC=CCC(C)OC(=O)CC(OC(=O)CC)C(OC)C1OC1OC(C)C(OC2CC(C)(OC(=O)CC)C(OC(=O)CC)C(C)O2)C(N(C)C)C1O", "note": "(stereo not shown) [9-acetyl-18,3\"-di-propionyl SF-837 substance]", "values": [
      {"measurement": "antibacterial activity", "setting": "[1]", "value": "Not observed"}
    ]},
    {"compound": "CCC(=O)OC1CC(=O)OC(C)CC=CC=CC(OC(C)=O)C(C)CC(CC=O)C(OC2OC(C)C(OC3CC(C)(O)C(OC(=O)CC)C(C)O3)C(N(C)C)C2O)C1OC", "note": "(stereo not shown) [9-mono-acetyl SF-837 substance, reference compound]", "values": [
      {"measurement": "MIC", "setting": "[2]", "value": 0.19, "unit": "µg/mL"},
      {"measurement": "MIC", "setting": "[3]", "value": 1.56, "unit": "µg/mL"},
      {"measurement": "MIC", "setting": "[4]", "value": 0.39, "unit": "µg/mL"},
      {"measurement": "MIC", "setting": "[5]", "value": 0.78, "unit": "µg/mL"},
      {"measurement": "MIC", "setting": "[6]", "value": 1.56, "unit": "µg/mL"},
      {"measurement": "MIC", "setting": "[7]; Staphylococcus albus 1200A, 24 hours, 37° C", "value": 0.78, "unit": "µg/mL"},
      {"measurement": "MIC", "setting": "[8]", "value": 1.56, "unit": "µg/mL"},
      {"measurement": "MIC", "setting": "[9]", "value": 0.04, "unit": "µg/mL"},
      {"measurement": "MIC", "setting": "[10]", "value": 0.39, "unit": "µg/mL"},
      {"measurement": "Rate of surviving mice in each group of mice", "setting": "[11]; 100 mg/kg oral", "value": "5/10"},
      {"measurement": "Rate of surviving mice in each group of mice", "setting": "[11]; 200 mg/kg oral", "value": "8/10"},
      {"measurement": "MIC", "setting": "[12]; Bacillus subtilis, ATCC6633, 24 h", "value": 1.56, "unit": "µg/mL"},
      {"measurement": "MIC", "setting": "[13]", "value": 0.78, "unit": "µg/mL"},
      {"measurement": "MIC", "setting": "[14]", "value": 0.19, "unit": "µg/mL"},
      {"measurement": "MIC", "setting": "[15]", "value": 0.04, "unit": "µg/mL"},
      {"measurement": "MIC", "setting": "[16]; ATCC8043, 24 h", "value": 1.56, "unit": "µg/mL"},
      {"measurement": "MIC", "setting": "[17]", "value": 1.56, "unit": "µg/mL"},
      {"measurement": "MIC", "setting": "Sarcina lutea", "value": 0.09, "unit": "µg/mL"}
    ]}
  ]
}
